Data: patent publication US8609622B2, “C-aryl glucoside derivatives, preparation process and pharmaceutical use thereof” (Shanghai Hengrui Pharmaceutical Co., Ltd., priority 2010, dated 2013)

Assays:
SGLT2 = SGLT2 (Homo sapiens (Human), UniProt P31639); test: SGLT2 activity measurement: [14C] methyl α-D-glucopyranoside uptake in SGLT2 instantaneous transfer strain; type: cell-based; conditions: SGLT2 transfected cells, 96-well plate, 15 min preincubation, 2 hours with [14C] methyl α-D-glucopyranoside at 37° C.
Sequence of SGLT2 (P31639 whole entry, species assumed): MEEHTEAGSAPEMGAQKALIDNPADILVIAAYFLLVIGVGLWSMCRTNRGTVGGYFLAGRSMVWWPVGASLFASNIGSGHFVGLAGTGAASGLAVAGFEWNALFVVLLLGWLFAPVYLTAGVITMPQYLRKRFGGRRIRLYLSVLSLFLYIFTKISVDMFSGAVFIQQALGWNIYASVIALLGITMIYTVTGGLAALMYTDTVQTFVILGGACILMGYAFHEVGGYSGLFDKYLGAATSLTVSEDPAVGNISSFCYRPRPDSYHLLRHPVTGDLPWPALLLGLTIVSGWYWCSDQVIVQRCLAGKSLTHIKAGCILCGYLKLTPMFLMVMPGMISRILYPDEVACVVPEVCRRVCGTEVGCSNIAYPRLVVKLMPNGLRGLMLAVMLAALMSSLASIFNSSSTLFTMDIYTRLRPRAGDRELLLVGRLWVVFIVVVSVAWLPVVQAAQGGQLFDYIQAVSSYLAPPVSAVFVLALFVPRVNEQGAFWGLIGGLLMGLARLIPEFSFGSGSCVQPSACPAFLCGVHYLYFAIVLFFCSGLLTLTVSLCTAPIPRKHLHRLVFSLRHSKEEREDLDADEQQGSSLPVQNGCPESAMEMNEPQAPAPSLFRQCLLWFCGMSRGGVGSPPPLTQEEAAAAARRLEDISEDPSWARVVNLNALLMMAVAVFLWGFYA
Experimental: (§1) Then each well of the 96-well plate was washed with 200 μL sodium-free buffer twice and 90 μL sodium-containing buffer solution containing test compounds having different concentrations was added, each of the test compounds having its corresponding concentration repeated in three wells. The compounds were incubated at 37° C. for 15 minutes and then each well of the 96-well plate was incubated with [14C] Methyl α-D-glucopyranoside (10 μL, totally 0.1 μCi) for another 2 hours at 37° C. Thereafter, supernatant was removed; the cell pellet was washed twice with precooling no-sodium buffer and lysed in 200 mM NaOH (100 μL). 100 μL scintillation fluid was added and mixed and 14C was quantitatively detected using liquid scintillation.
(§2) The IC50 values of the compounds can be calculated using the aggregation rate at different concentrations.

SGLT1 = SGLT1 (Homo sapiens (Human), UniProt P13866); test: SGLT1 activity measurement: [14C] methyl α-D-glucopyranoside uptake in SGLT1 instantaneous transfer strain; type: cell-based; conditions: SGLT1 transfected cells, 96-well plate, 15 min preincubation, 2 hours with [14C] methyl α-D-glucopyranoside at 37° C.
Sequence of SGLT1 (P13866 whole entry, species assumed): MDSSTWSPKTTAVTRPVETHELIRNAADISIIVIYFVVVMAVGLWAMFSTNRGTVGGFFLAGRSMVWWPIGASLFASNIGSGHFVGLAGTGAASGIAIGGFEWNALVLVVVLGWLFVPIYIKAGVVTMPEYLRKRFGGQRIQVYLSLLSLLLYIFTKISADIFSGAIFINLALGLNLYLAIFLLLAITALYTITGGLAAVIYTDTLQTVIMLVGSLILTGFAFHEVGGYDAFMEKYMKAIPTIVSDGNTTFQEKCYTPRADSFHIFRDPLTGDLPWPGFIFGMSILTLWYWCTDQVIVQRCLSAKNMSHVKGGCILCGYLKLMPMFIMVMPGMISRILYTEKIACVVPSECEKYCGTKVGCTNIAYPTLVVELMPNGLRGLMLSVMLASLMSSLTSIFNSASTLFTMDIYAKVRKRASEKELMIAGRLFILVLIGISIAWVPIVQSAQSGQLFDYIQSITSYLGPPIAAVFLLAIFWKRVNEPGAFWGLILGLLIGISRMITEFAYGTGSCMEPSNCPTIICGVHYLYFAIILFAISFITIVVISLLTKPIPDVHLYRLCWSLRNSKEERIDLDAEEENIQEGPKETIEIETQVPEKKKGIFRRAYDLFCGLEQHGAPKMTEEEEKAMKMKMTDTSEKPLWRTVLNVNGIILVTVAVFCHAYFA
Experimental: as §1, §2

glucose-load mice = test: Preliminary evaluation of the hypoglycemic effect in glucose-load mice; type: in vivo; conditions: ICR mice, dose 1 mg/kg, 20% glucose solution 4 g/kg given 15 minutes after administering, blood glucose at minute 0, 15, 30, 45, 60, 120
Experimental: The purpose was to observe the effect of the test compounds on blood glucose levels of glucose-load mice. Determination and analysis of sugar content in the blood collected from the mouse tail was determined at different times within 2 hours of administration to provide preliminary evaluation of the hypoglycemic activity in vivo.
The experimental animals used were 24 healthy ICR mice (weighing 20-24 g), 12 female and 12 male, purchased from Shanghai Super—B&K laboratory animal Corp. Ltd., animal production license number: SCXK (Shanghai) 2008-0016.
To prepare the drug, a certain amount of compounds were weighed and dissolved in water (pure water OWN) and formulated into an aqueous solution of 0.1 mg/mL (5% DMSO for solubilization).
The administered dose was 1 mg/kg, blank and water groups (containing 5% DMSO).
20% glucose solution (4 g/kg, 0.8 mL each mouse) was given after 15 minutes of administration.
Administering in dose and measuring the blood glucose value (−15 minutes).

Compound | IC50 (SGLT2) | IC50 (SGLT1) | AUC decline rate % (glucose-load mice)
CCOc1ccc(Cc2cc(C34OCC(CO)(O3)C(O)C(O)C4O)ccc2Cl)c(F)c1F (single isomer, unassigned) [Example 3] | 8.08 nM |  | 
CCOc1ccc(Cc2cc(C34OCC(CO)(O3)C(O)C(O)C4O)ccc2Cl)cc1F (single isomer, unassigned) [Example 4] | 6.92 nM |  | 
OCC12COC(c3ccc(Cl)c(Cc4ccc5c(c4)CCO5)c3)(O1)C(O)C(O)C2O (single isomer, unassigned) [Example 5] |  | 2520 nM | 
OCC12COC(c3ccc(Cl)c(Cc4ccc(OCC(F)(F)F)cc4)c3)(O1)C(O)C(O)C2O (single isomer, unassigned) [Example 7] | 4.58 nM | 14300 nM | 
Cc1ccc(C23OCC(CO)(O2)C(O)C(O)C3O)cc1Cc1ccc(-c2ccc(F)cc2)s1 (single isomer, unassigned) [Example 9] | 9.28 nM | 1260 nM | 
OCC12COC(c3ccc(Cl)c(Cc4ccc(OCCOC5CC5)cc4)c3)(O1)[C@H](O)[C@@H](O)[C@@H]2O (stereo in doubt) [Example 1, (1S,2S,3S,4R,5S)-5-[4-chloro-3-[[4-[2-(cyclopropoxy)ethoxy]phenyl]methyl]phenyl]-1-(hydroxymethyl)-6,8-dioxabicyclo[3.2.1]octane-2,3,4-triol] | 9.53 nM | > 2000 nM | 10.04%
COc1ccc(Cc2cc(C34OCC(CO)(O3)[C@@H](O)[C@H](O)[C@H]4O)ccc2Cl)c(F)c1F (stereo in doubt) [Example 2, (1S,2S,3S,4R,5S)-5-[4-chloro-3-[(2,3-difluoro-4-methoxy-phenyl)methyl]phenyl]-1-(hydroxymethyl)-6,8-dioxabicyclo[3.2.1]octane-2,3,4-triol] | 3.65 nM | > 2000 nM | 12.95%
CCOc1ccc(Cc2cc(C34OCC(CO)(O3)[C@@H](O)[C@H](O)[C@H]4O)ccc2Cl)cc1F (stereo in doubt) [Example 4, (1S,2S,3S,4R,5S)-5-[4-chloro-3-[(4-ethoxy-3-fluoro-phenyl)methyl]phenyl]-1-(hydroxymethyl)-6,8-dioxabicyclo[3.2.1]octane-2,3,4-triol] |  |  | 15.88%
OCC12COC(c3ccc(Cl)c(Cc4ccc5c(c4)CCO5)c3)(O1)[C@H](O)[C@@H](O)[C@@H]2O (stereo in doubt) [Example 5, (1S,2S,3S,4R,5S)-5-[4-chloro-3-(2,3-dihydrobenzofuran-5-ylmethyl)phenyl]-1-(hydroxymethyl)-6,8-dioxabicyclo[3.2.1]octane-2,3,4-triol] |  |  | 14.13%
OCC12COC(c3ccc(Cl)c(Cc4ccc(OC(F)(F)F)cc4)c3)(O1)[C@H](O)[C@@H](O)[C@@H]2O (stereo in doubt) [Example 6, (1S,2S,3S,4R,5S)-5-[4-chloro-3-[[4-(trifluoromethoxy)phenyl]methyl]phenyl]-1-(hydroxymethyl)-6,8-dioxabicyclo[3.2.1]octane-2,3,4-triol] |  |  | 10.15%
OCC12COC(c3ccc(Cl)c(Cc4ccc(OCC(F)(F)F)cc4)c3)(O1)[C@H](O)[C@@H](O)[C@@H]2O (stereo in doubt) [Example 7, (1S,2S,3S,4R,5S)-5-[4-chloro-3-[[4-(2,2,2-trifluoroethoxy)phenyl]methyl]phenyl]-1-(hydroxymethyl)-6,8-dioxabicyclo[3.2.1]octane-2,3,4-triol] |  |  | 10.75%
[2H]C([2H])([2H])Oc1ccc(Cc2cc(C34OCC(CO)(O3)[C@@H](O)[C@H](O)[C@H]4O)ccc2Cl)cc1F (stereo in doubt) [Example 8, (1S,2S,3S,4R,5S)-5-[4-chloro-3-[[3-fluoro-4-(trideuteriomethoxy)phenyl]methyl]phenyl]-1-(hydroxymethyl)-6,8-dioxabicyclo[3.2.1]octane-2,3,4-triol] | 1.42 nM | 600 nM | 20.49%
[2H]C([2H])([2H])C([2H])([2H])Oc1ccc(Cc2cc(C34OCC(CO)(O3)[C@@H](O)[C@H](O)[C@H]4O)ccc2Cl)cc1F (stereo in doubt) [Example 10, (1S,2S,3S,4R,5S)-5-[4-chloro-3-[[3-fluoro-4-(1,1,2,2,2-pentadeuterioethoxy)phenyl]methyl]phenyl]-1-(hydroxymethyl)-6,8-dioxabicyclo[3.2.1]octane-2,3,4-triol] | 3.31 nM | 1220 nM | 
[2H]C([2H])(c1ccc(OCC)c(F)c1)c1cc(C23OCC(CO)(O2)[C@@H](O)[C@H](O)[C@H]3O)ccc1Cl (stereo in doubt) [Example 11, (1S,2S,3S,4R,5S)-5-[4-chloro-3-[dideuterio-(4-ethoxy-3-fluoro-phenyl)methyl]phenyl]-1-(hydroxymethyl)-6,8-dioxabicyclo[3.2.1]octane-2,3,4-triol] | 6.35 nM | 3550 nM | 
